{"source": "patent US8440671B2", "about": "“Compositions comprising a phoshodiesterase-5 inhibitor and their use in methods of treatment” (priority 2007, dated 2013)", "key": {"[1]": {"test_system": "subject with rapidly progressive multi-system neurodegenerative disease, facial acne, vitiligo, gingival infections", "type": "in vivo", "conditions": "for substitution within the oral combination: Viagra 50 mg TID for oral Cialis, Paxil 20 mg TID for Luvox; for clinical response to neurological disease, skin and mucous membrane disorders: each drug given individually", "from_the_text": "A second subject was diagnosed with nonspecific but rapidly progressive multi-system neurodegenerative disease. […] Initial presentation was with abrupt onset dementia with rapid progression over 3-4 months. Severe, generalized myoclonus of high amplitude with ataxia, dyspahagia, central and peripheral respiratory distress (requiring CPAP), dizziness, and hypokinetic rigidity followed some one month later and have continued to progress as well as dementia.\nMild intermittent gingival infections requiring minimal surgical intervention with retraction from tooth line for over ten years.\nPatient was a non-smoker with no alcohol or other drug consumption. Patient suffered from coexisting prior problem of chronic atrial fibrillation, currently rate controlled with exercise alone and anticoagulation intermittently with Coumadin.\nThe twenty four hour doses, put into 7.5 cc of water solution, was also applied topically to scar noted previously. […] Patient also takes Folic acid—1 mg per day, and Vitamin B6."}, "[2]": {"test_system": "subject with Alzheimer's Disease and dementia", "conditions": "for clinical status changes: cholinesterase inhibitor alone", "from_the_text": "A fifth subject was diagnosed with Alzheimer's Disease and dementia and administered a combination of PI-5, SSRI and CI."}, "[3]": {"test_system": "subject with atypical Parkinson's Disease, severe seborrheic dermatitis and scarring facial acne rosacea", "type": "in vivo", "from_the_text": "A third subject was diagnosed with atypical Parkinson's Disease with an initial presentation fifteen years earlier with cogwheel type diffuse tremor of low amplitude, diffuse muscular rigidity, mild bradykinesia, gait abnormalities.\nPatient is a non-smoker and social drinker with minimal alcohol consumption and no history of drug abuse. Chronic problems of borderline hypertension (treated with diet and HYTRIN® (terazoin)), benign prostatic hypertrophy (treated with HYTRIN® (terazoin) and voding training), GERD treated intermittently as needed with PRILOSEC® (omeprazole) plus PEPCID® (famotidine) for short periods, DJD of cervical and lumbar spine treated intermittently with physical therapy, TYLENOL® (acetaminophen), occasional VICODIN® (acetaminophen/hydrocodone) as needed."}, "[4]": {"test_system": "subject with Parkinson's Disease", "assay": "Example 4: case report, subject with Parkinson's Disease given PI-5, SSRI and DI", "from_the_text": "A fourth subject was diagnosed with Parkinson's Disease and administered a combination of PI-5, SSRI and DI."}}, "data": [{"smiles": "Fc1ccc([C@@H]2CCNC[C@H]2COc2ccc3c(c2)OCO3)cc1", "note": "[Paxil, paroxetine]", "values": [{"measurement": "substitution within the oral combination", "setting": "[1]", "result": "equivalently substituted"}]}, {"smiles": "COc1cc2c(cc1OC)C(=O)C(CC1CCN(Cc3ccccc3)CC1)C2", "note": "(centres unmarked) [ARICEPT® (donepezil), donepezil]", "values": [{"measurement": "clinical status changes", "setting": "[2]", "result": "without significant clinical status changes"}, {"measurement": "substitution for COGNEX within the combination", "setting": "[2]; two week period, without noticeable changes", "result": "successfully substituted"}]}, {"smiles": "NC12CC3CC(CC(C3)C1)C2", "note": "[Amantadine, amantadine]", "values": [{"measurement": "change in seborrheic dermatitis or acne rosacea", "setting": "[3]; chronic low-dose treatment", "result": "No change"}, {"measurement": "improvement of all symptoms", "setting": "[3]; chronic low-dose treatment", "result": "little or no improvement"}]}, {"smiles": "COCCCC/C(=N\\OCCN)c1ccc(C(F)(F)F)cc1", "note": "[LUVOX® (fluvoxamine), fluvoxamine]", "values": [{"measurement": "clinical response to neurological disease, skin and mucous membrane disorders", "setting": "[1]", "result": "without any clinical response"}]}, {"smiles": "CN1CCc2cccc3c2[C@H]1Cc1ccc(O)c(O)c1-3", "note": "[Apomorphine, apomorphine]", "values": [{"measurement": "paradoxical response to IV Apomorphine", "setting": "[3]; IV, part of work-up", "result": "decreased blood pressure and worsening of rigidity and tremor"}]}, {"smiles": "Nc1c2c(nc3ccccc13)CCCC2", "note": "[COGNEX® (tacrine), tacrine]", "values": [{"measurement": "clinical response to neurological disease, skin and mucous membrane disorders", "setting": "[1]", "result": "without any clinical response"}, {"measurement": "clinical status changes", "setting": "[2]", "result": "without significant clinical status changes"}, {"measurement": "effect on all symptoms when added to the regimen", "setting": "[4]; added to Luvox, Cialis, Sinemet regimen", "result": "mild improvements"}, {"measurement": "tolerability when added to the regimen", "setting": "[4]; human, in vivo", "result": "discontinued secondary to gastrointestinal upset"}]}, {"smiles": "CC(C)C[C@H]1C(=O)N2CCC[C@H]2[C@]2(O)O[C@](NC(=O)[C@@H]3C=C4c5cccc6[nH]c(Br)c(c56)C[C@H]4N(C)C3)(C(C)C)C(=O)N12", "note": "[Bromocriptine, bromocriptine]", "values": [{"measurement": "change on short periods of treatment", "setting": "[4]; short periods later in disease", "result": "without significant change"}]}, {"smiles": "CCCc1nn(C)c2c(=O)[nH]c(-c3cc(S(=O)(=O)N4CCN(C)CC4)ccc3OCC)nc12", "note": "[VIAGRA® (sildenafil), sildenafil]", "values": [{"measurement": "substitution within the oral combination", "setting": "[1]", "result": "equivalently substituted"}, {"measurement": "clinical response to neurological disease, skin and mucous membrane disorders", "setting": "[1]", "result": "without any clinical response"}]}]}
